SMILES strings stand for the structures. Where a SMILES comes first, the peptide text is derived from it. The star is where a group is joined. Cbz = O=C(OCc1ccccc1)*

The subject of one test is DA1 gene. Briefly: DA1 gene expression after phytohormone treatment, quantitative RT-PCR. Format: in vivo, Arabidopsis thaliana. An excerpt: (§1) (A) DA1 gene structure, showing the mutated sites of da1-1, sod1-1, sod1-2, and sod1-3 alleles. The start codon (ATG) and the stop codon (TGA) are indicated. Closed boxes indicate the coding sequence and lines between boxes indicate introns. T-DNA insertion sites (da1-ko1, da1-ko2 and da1-ko3) in DA1 gene are shown. (B to G) DA1 promoter activity monitored by pDA1::GUS transgene expression. GUS staining in seedlings (B and C), an embryo (D), roots (E), and petals (F and G). (H and I) The flowers of Col-0 (H) and da1-ko1dar1-1 double mutant (I). (J) Siliques of Col-0 (left) and da1-ko1dar1-1 double mutant (right). (K) Petal area of Col-0, da1-ko1, dar1-1, da1-ko1dar1-1 double mutants. […] 7 d-old WT seedlings were treated with 10 μm ABA for 2, 4, 6, 18 and 30 hours. (M and N) Wild type Col-0 and da1-1 seeds were grown on MS medium with 2 μm ABA under constant light conditions. […] Scale bars: 1 mm (B, H, I, M, and N), 50 μm (C and E), 0.5 mm (C and J), 0.1 mm (F and G), 0.5 cm (0).
(§2) Relatively high levels of GUS activity were detected in proliferating tissues (FIG. 3c-f). In addition, the DA1 promoter is also active in roots (FIG. 3b, c). Given the effects of hormones on organ growth, we tested whether any major classes of phytohormones (abscisic acid, jasmonic acid, ethylene, auxin, cytokinin, gibberellin, brassinosteroids and glucose) could influence transcription of DA1 gene. […]

The next test concerns da1-1 mutant seedlings. The experiment in a line: Seedling establishment and growth on MS medium with ABA, da1-1 mutant. It is filed as in vivo, Arabidopsis thaliana.
From the text: as §1, §2

Test [1] concerns wild type Col-0 seedlings. Briefly: Seedling growth on MS medium with ABA, wild type. Format: in vivo, Arabidopsis thaliana. The settings on record: 4 d-old seedlings transferred to MS medium with 5 μm ABA for 3 weeks.
From the text: as §1

The next test deals with proteasome. The experiment in a line: Stability of DA1 protein in cell-free Arabidopsis protein extracts with ATP, Western analysis. Format: biochemical. The settings on record: GST-DA1 incubated with Arabidopsis protein extracts and ATP; Western with DA1 antibody. How it is done:
This is supported by the observation that detection of DA1 protein with a good specific antibody in plant extracts is very difficult. We therefore tested the stability of DA1 protein in Arabidopsis using DA1 protein expressed in E. coli and cell-free protein extracts from Arabidopsis. Full length DA1 protein expressed and purified as an N-terminal GST fusion protein, was incubated with Arabidopsis protein extracts and ATP, and subjected to Western analysis using a specific DA1 antibody. […] The UIM motifs of DA1 are predicted, based on knowledge of UIM function in animal cells, to be involved in ubiqutination. It may be that DA1 is ubiquitinated and targeted for degradation as part of the mechanism of growth control.

On to `CC1=CC(=O)CC(C)(C)[C@@]1(O)/C=C/C(C)=C\C(=O)O` [ABA, abscisic acid], for which the “expression of DA1” value in the test with DA1 gene (7 d-old WT seedlings treated with 10 μm ABA for 2, 4, 6, 18 and 30 hours, quantitative RT-PCR) is reported as “slowly induced”. The “expression level of the DA1 gene (transcription) after phytohormone treatment” value with DA1 gene (major classes of phytohormones tested) is listed as “induced slowly”. In the test with da1-1 mutant seedlings (4 d-old seedlings transferred to MS medium with 5 μm ABA for 3 weeks), the “growth of da1-1 mutant seedlings” value is “continue to grow”. In the test with da1-1 mutant seedlings (seeds grown on MS medium with 2 μm ABA under constant light), the “seedling establishment of da1-1 mutant” value was “ABA-insensitive seedling establishment”. Moreover, in test [1], the “growth of wild type Col-0 seedlings” value is “inhibit the growth”.

As for `CC(C)C[C@@H](C=O)NC(=O)[C@H](CC(C)C)NC(=O)[C@H](CC(C)C)NC(=O)OCc1ccccc1` [MG132] (Cbz-Leu-Leu-Leu-aldehyde), in the test with proteasome, the “effect on degradation of DA1 protein” value is on record as “abolish this degradation”.

(Values after patent US9624502B2, “Methods of controlling plant seed and organ size” (PLANT BIOSCIENCE LIMITED, priority 2007, dated 2017).)
